The test system of one assay is C. violaceum. The settings on record: cited from earlier work.
In a further assay the test system is S. aureus. The settings on record: cited from earlier work.
The subject of the next assay is P. aeruginosa. The settings on record: cited from earlier work.
A further assay concerns P. fluorescens. The settings on record: cited from earlier work.
The test system of the next assay is E. coli. Conditions: E. coli O157:H7; cited from earlier work.
The next assay has as its system Acinetobacter. Conditions: cited from earlier work.
For another assay, the system named is Burkholderia. The settings on record: cited from earlier work.
Another assay deals with S. aureus (ATCC 12600). Briefly: Biofilm assay (crystal violet). The settings on record: 0.25-5 mg/mL, overnight, crystal violet OD 590 nm. The format is cell-based, Staphylococcus aureus. As for the experimental part:
(§1) Biofilm assay: The biofilm assay was based on the method of Chong, et al. (2011). The model composition and Catechin were prepared at 100 mg/mL in ethanol. Appropriate volumes of each were added to eight replicate wells of a v-well 96-well plate to result in 0.25, 0.5, 1.25 and 5 mg/mL final concentrations for a 200 microliter final volume. The plate was air dried until all of the ethanol has evaporated. From fresh overnight cultures of P. aeruginosa (ATCC 10145) and S. aureus (ATCC 12600), solutions at OD600 of 0.1 were prepared in Nutrient broth/0.5% glucose. Two hundred microliters of the cultures were added to all wells and mixed by pipetting. The plates were covered with breathable films and incubated overnight without shaking at 37 degrees C. The cultures were removed, and the plates rinsed several times with water. Two hundred microliters of 0.1% crystal violet was added to each well and incubated at room temperature for 30 minutes. […] One hundred microliters of the solubilized crystal violet was transferred to a flat-bottom polystyrene plate and the optical density measured at 590 nm.
(§2) BIOFILM ASSAY: The composition of EXAMPLE XI was evaluated for anti-biofilm activity against Pseudomonas aeruginosa and Staphylococcus aureus. […]
(§3) The plates were incubated statically overnight. […] The crystal violet was quantified by measuring the optical density at 590 nm.

The test system of assay [1] is Chromobacterium violaceum (CV026). Put plainly: Halo assay (anti-quorum sensing). The format is cell-based. The settings on record: CV026 agar plate; for Catechin at the highest concentrations.
Assay [2] relates to Pseudomonas aeruginosa (ATCC 10145). Put plainly: Pyocyanin assay. The format is cell-based. The settings on record: overnight culture, test materials in DMSO and in ethanol.
Assay [3] relates to P. aeruginosa (ATCC 10145). Briefly: Biofilm assay (crystal violet). The format is cell-based, Pseudomonas aeruginosa. The settings on record: 0.25-5 mg/mL, overnight, crystal violet OD 590 nm. As for the experimental part:
as §1, §2, §3

Another assay has as its system C. violaceum (CV026). Briefly: Violaceum assay (modified, butanol extraction). The format is cell-based, Chromobacterium violaceum. As for the experimental part:
SUMMARY OF METHODS: (+)-Catechin was used as a positive control in the halo and violaceum assays. Varying concentrations of the composition of EXAMPLE XI or catechin mixed with C. violaceum were added to an agar plate and the generated halo was analyzed both by visual inspection and measurement. Method for Violaceum assays included adding either the composition of EXAMPLE XI or catechin to a solution of C. violaceum (strain CV026). After workup, the solutions were transferred to a 96 well plate and optical density was recorded at 590 nm. Optical density values were normalized to unextracted samples as a control.
Violaceum Assay: The violaceum assay was adapted from the method of Blosser, et al., Journal of Microbiological Methods 2000, 40, pp. 47-55. The model composition and Catechin were suspended/dissolved in ethanol. […] The OD600 of each culture was measured to be used to normalize violaceum levels to total biomass. […] The optical density was measured at 590 nm. The OD590 values were normalized to the biomass measurements determined for the unextracted samples.
VIOLACEUM ASSAY: The Violaceum assay was performed to further corroborate the results obtained in the Halo assay and to provide a quantitative measure of activity. This assay is based on the same principles as for the Halo assay, but since the assay is performed in solution, violaceum production can be more readily quantified. […]

The mark [4] stands for this setting: P. aeruginosa, strain not stated.

Read-outs that look alike come from different tables or passages of the source.

`O=C(O)[C@H]1O[C@@H](Oc2cc3oc(-c4ccccc4)cc(=O)c3c(O)c2O)[C@H](O)[C@@H](O)[C@@H]1O` [Baicalin]: the “inhibition of quorum sensing” value in the assay with C. violaceum (C. violaceum CV026) and in the assay on S. aureus was “inhibits quorum sensing” each time.

With `O=C(/C=C/c1ccc(O)c(O)c1)O[C@@H]1C[C@](O)(C(=O)O)C[C@@H](O)[C@H]1O` [Chlorogenic acid], in the assay with P. aeruginosa (setting [4]), the “inhibition of quorum sensing” value is given as “inhibits quorum sensing”.

Turning to `O=CC=Cc1ccccc1` [Cinnamaldehyde], the “inhibition of quorum sensing” value in the assay on C. violaceum (C. violaceum CV026) and in the assay with P. aeruginosa (P. aeruginosa PAO1) was “inhibits quorum sensing” in each case.

Take `O=C(O[C@@H]1Cc2c(O)cc(O)cc2O[C@@H]1c1cc(O)c(O)c(O)c1)c1cc(O)c(O)c(O)c1` [EGCG]: the “inhibition of quorum sensing” value with P. aeruginosa (setting [4]) is “inhibits quorum sensing”.

As to `COc1ccc([C@@H]2CC(=O)c3c(O)cc(O[C@@H]4O[C@H](CO[C@@H]5O[C@@H](C)[C@H](O)[C@@H](O)[C@H]5O)[C@@H](O)[C@H](O)[C@H]4O)cc3O2)cc1O` [Hesperidin], the “inhibition of quorum sensing” value is “inhibits quorum sensing” with C. violaceum (C. violaceum, strain not stated) and “inhibits quorum sensing” in the assay on P. fluorescens.

`O=C1C[C@@H](c2ccc(O)cc2)Oc2cc(O)cc(O)c21` [Naringenin]: the “inhibition of quorum sensing” value with P. aeruginosa (P. aeruginosa PAO1) is recorded as “inhibits quorum sensing”.

Consider `O=C(/C=C/c1ccc(O)c(O)c1)O[C@H](Cc1ccc(O)c(O)c1)C(=O)O` [Rosmarinic acid], for which the “inhibition of quorum sensing” value with C. violaceum (C. violaceum 31532), with C. violaceum (C. violaceum CV026), in the assay with P. aeruginosa (P. aeruginosa PAO1) and in the assay on E. coli was “inhibits quorum sensing” in each case.

As to `C[S+]([O-])CCCCN=C=S` (centres unmarked) [Sulforaphane], in the assay on P. aeruginosa (setting [4]), the “inhibition of quorum sensing” value is on record as “inhibits quorum sensing”.

On to `O=C1OCC2OC(=O)c3cc(O)c(O)c(O)c3-c3c(O)c(O)c(O)c4c3C(=O)OC(C2OC(=O)c2cc(O)c(O)c(O)c2-c2c1cc(O)c(O)c2O)C1OC(=O)c2c-4c(O)c(O)c(O)c2C1O` (centres unmarked) [Vescalagin], for which the “inhibition of quorum sensing” value with Acinetobacter, in the assay with Burkholderia and in the assay with P. aeruginosa (setting [4]) was “inhibits quorum sensing” in each case.

For (+)-Catechin, the anti-biofilm activity entry (with S. aureus (ATCC 12600); in assay [3]) was “similar” throughout. Besides, the “bacterial growth in halo assay” value in [1] was “antibiotic effect inhibiting growth of the bacteria”. In addition, in [2], the “effect on pyocyanin production” value is “slightly enhances production”. In addition, the “inhibition of violaceum production (quorum sensing)” value with C. violaceum (CV026) (highest concentration tested, 5 mg/mL, OD590 normalized to biomass) is “over 85%”. In the assay with C. violaceum (CV026) (three lowest concentrations tested (1.25, 0.5 and 0.25 mg/mL)), the “inhibition of violaceum production” value is listed as 10-25%.

The record behind these values is patent US20210369753A1, “NUTRIENT COMPOSITION ABLE TO INHIBIT QUORUM SENSING” (Brilliant Lab LLC, priority 2020, published 2021).
